Assay results as given in patent US9023789B2, “Amylin analogs and pharmaceutical compositions thereof” (Novo Nordisk A/S, priority 2012, dated 2015).
Numbered stars: 1 amine (or outer) side, 2 acyl side, 3 side chain; on linkers, the order of the positions; unused ones are H or OH. Bridge positions count the residues as written; N and C are the ends. Side chains are listed from the residue outwards. Peptide text beside a SMILES is read from it. * marks the point of attachment. C20 diacid = O=C(O)CCCCCCCCCCCCCCCCCCC(=O)*; γGlu = O=C(O)[C@H](CCC(=O)[*:2])N[*:1]; AEEA = NCCOCCOCC(=O)O

Columns and labels:
[1] = target: T1, human amylin 3(a) receptor (human calcitonin receptor + RAMP-3) in BHK570 cells (Homo sapiens, UniProt O60896+P30988); assay: ASSAY (II)a functional assay, human amylin receptor (CRE luciferase); format: cell-based; settings: for EC50: human amylin receptor functional potency, assay (II), read-out: hAmylin-R funct. EC50
T1 construct: expressed in transfected cells
T1 sequence (O60896 24-148, one chain of several): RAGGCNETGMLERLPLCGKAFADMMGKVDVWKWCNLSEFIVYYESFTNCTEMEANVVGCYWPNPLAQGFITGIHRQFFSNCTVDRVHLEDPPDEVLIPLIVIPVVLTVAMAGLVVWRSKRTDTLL
How it was run: (§1)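 Cells were seeded and cultured overnight, then incubated with standard or sample for 3 h at 37° C in serum-containing medium at pH 7.4. The medium was then swapped for PBS, LucLite was added for 30 min at room temperature, and luminescence was recorded. Cells were BHK with CRE-luc and calcitonin receptor, ± RAMP-3.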

[2] = target: T2, human calcitonin (a) receptor in BHK570 cells (Homo sapiens, UniProt P30988); assay: ASSAY (II)a functional assay, human calcitonin receptor (CRE luciferase); format: cell-based; settings: read-out: hCTR funct. EC50
T2 construct: expressed in transfected cells
T2 sequence (P30988 25-474): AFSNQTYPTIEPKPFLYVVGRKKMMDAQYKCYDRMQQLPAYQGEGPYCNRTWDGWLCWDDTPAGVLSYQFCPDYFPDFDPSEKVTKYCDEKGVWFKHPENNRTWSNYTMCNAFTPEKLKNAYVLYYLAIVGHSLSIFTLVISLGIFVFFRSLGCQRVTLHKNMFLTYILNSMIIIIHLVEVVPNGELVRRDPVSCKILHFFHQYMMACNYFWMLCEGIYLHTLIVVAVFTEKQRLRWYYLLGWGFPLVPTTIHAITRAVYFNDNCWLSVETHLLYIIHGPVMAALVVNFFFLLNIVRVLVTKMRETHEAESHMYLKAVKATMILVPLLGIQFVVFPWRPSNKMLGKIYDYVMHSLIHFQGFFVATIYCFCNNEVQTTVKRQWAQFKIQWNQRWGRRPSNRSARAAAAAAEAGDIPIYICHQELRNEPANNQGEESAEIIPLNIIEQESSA
How it was run: as §1

[3] = ASSAY (III) ThT fibrillation assay for physical stability; format: physicochemical
How it was run: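 Formulations with 1 μM ThT, pH adjusted as required, incubated at 37 °C with 960 rpm orbital shaking; fluorescence (ex 444/em 485 nm) read every 20 min. Fibrillation reported as mean ThT fluorescence ± SD of 4–8 replicates at time points; polypeptide concentration measured by reverse-phase HPLC before and after, post-centrifugation.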

[4] = target: T3, human calcitonin receptor (Homo sapiens, UniProt P30988); assay: ASSAY (VII) binding to the human calcitonin receptor (SPA, 125I-Calcitonin); settings: read-out: hCTR bind IC50;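 also: cell membranes (35 ng/µL) combined with SPA beads in 40 µL of pH 7.4 Hepes buffer, 384-well format, signal counted on a TopCounter instrument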
T3 construct: expressed in transfected cells
T3 sequence (P30988 25-474): T2 sequence (P30988 25-474)

[5] = hCTR funct. EC50 divided by hAmylin-R funct. EC50
[6] = hCTR funct. EC50 over hAmylin-R funct. EC50
[7] = human functional selectivity: hCTR funct. EC50 / hAmylin-R funct. EC50

SMILES	Ratio hCT/hAmylin funct. [1, 5]	Ratio hCT/hAmylin funct. [1, 6]	EC50 [1] [nM]	Ratio hCT/hAmylin funct. [1, 7]	EC50 [2] [nM]	ThT pH 4.0 lag time (h) [3] [h]	IC50 [4] [nM]
CC[C@H](C)[C@H](NC(=O)[C@H](C)NC(=O)CNC(=O)[C@H](Cc1ccccc1)NC(=O)[C@H](CC(N)=O)NC(=O)[C@@H]1CCCN1C(=O)[C@H](CO)NC(=O)[C@H](CO)NC(=O)[C@H](Cc1c[nH]cn1)NC(=O)[C@H](CCCNC(=N)N)NC(=O)[C@H](CC(C)C)NC(=O)[C@H](Cc1ccccc1)NC(=O)[C@H](CC(N)=O)NC(=O)[C@H](C)NC(=O)[C@H](CC(C)C)NC(=O)[C@H](CCCNC(=N)N)NC(=O)[C@H](CCC(N)=O)NC(=O)[C@@H](NC(=O)[C@H](C)NC(=O)[C@@H]1CSSC[C@H](NC(=O)[C@H](CCCNC(=N)N)NC(=O)[C@@H](N)CCCCNC(=O)CC[C@H](NC(=O)CCCCCCCCCCCCCCCCCCC(=O)O)C(=O)O)C(=O)N[C@@H](CC(N)=O)C(=O)N[C@@H]([C@@H](C)O)C(=O)N[C@@H](C)C(=O)N[C@@H]([C@@H](C)O)C(=O)N1)[C@@H](C)O)C(=O)N1CCC[C@H]1C(=O)N[C@@H](CO)C(=O)N[C@@H](CO)C(=O)N[C@H](C(=O)N[C@@H](CC(N)=O)C(=O)N[C@H](C(=O)NCC(=O)N[C@@H](CO)C(=O)N[C@@H](Cc1c[nH]cn1)C(=O)N[C@H](C(=O)N[C@@H](Cc1ccc(O)cc1)C(N)=O)[C@@H](C)O)C(C)C)[C@@H](C)O [Example 44] (H-K([γGlu-C20 diacid])RCNTATCATQRLANFLRHSSPNFGAIPSSTNVGSHTY-NH2; disulfide 3-8)	24.0	24.0	0.198	24.0	4.75	45	4.87
CC[C@H](C)[C@H](NC(=O)[C@H](C)NC(=O)CNC(=O)[C@H](Cc1ccccc1)NC(=O)[C@H](CC(N)=O)NC(=O)[C@@H]1CCCN1C(=O)[C@H](CO)NC(=O)[C@H](CO)NC(=O)[C@H](Cc1c[nH]cn1)NC(=O)[C@H](CCCNC(=N)N)NC(=O)[C@H](CC(C)C)NC(=O)[C@H](Cc1ccccc1)NC(=O)[C@H](CC(N)=O)NC(=O)[C@H](C)NC(=O)[C@H](CC(C)C)NC(=O)[C@H](CCCNC(=N)N)NC(=O)[C@H](CCC(N)=O)NC(=O)[C@@H](NC(=O)[C@H](C)NC(=O)[C@@H]1CSSC[C@H](NC(=O)[C@@H](N)CCCCNC(=O)CC[C@H](NC(=O)CCCCCCCCCCCCCCCCCCC(=O)O)C(=O)O)C(=O)N[C@@H](CC(N)=O)C(=O)N[C@@H]([C@@H](C)O)C(=O)N[C@@H](C)C(=O)N[C@@H]([C@@H](C)O)C(=O)N1)[C@@H](C)O)C(=O)N1CCC[C@H]1C(=O)N[C@@H](CO)C(=O)N[C@@H](CO)C(=O)N[C@H](C(=O)N[C@@H](CC(N)=O)C(=O)N[C@H](C(=O)NCC(=O)N[C@@H](CO)C(=O)N[C@@H](CC(N)=O)C(=O)N[C@H](C(=O)N[C@@H](Cc1ccc(O)cc1)C(N)=O)[C@@H](C)O)C(C)C)[C@@H](C)O [Example 48]	17.0	17.0	0.116	17.0	1.97	25	30.9
CC[C@H](C)[C@H](NC(=O)[C@H](C)NC(=O)CNC(=O)[C@H](Cc1ccccc1)NC(=O)[C@H](CC(N)=O)NC(=O)[C@@H]1CCCN1C(=O)[C@H](CO)NC(=O)[C@H](CO)NC(=O)[C@H](Cc1c[nH]cn1)NC(=O)[C@H](CCCNC(=N)N)NC(=O)[C@H](CC(C)C)NC(=O)[C@H](Cc1ccccc1)NC(=O)[C@H](CC(N)=O)NC(=O)[C@H](C)NC(=O)[C@H](CC(C)C)NC(=O)[C@H](CCCNC(=N)N)NC(=O)[C@H](CCC(N)=O)NC(=O)[C@@H](NC(=O)[C@H](C)NC(=O)[C@@H]1CSSC[C@H](NC(=O)[C@@H](N)CCCCNC(=O)COCCOCCNC(=O)CC[C@H](NC(=O)CCCCCCCCCCCCCCCCCCC(=O)O)C(=O)O)C(=O)N[C@@H](CC(N)=O)C(=O)N[C@@H]([C@@H](C)O)C(=O)N[C@@H](C)C(=O)N[C@@H]([C@@H](C)O)C(=O)N1)[C@@H](C)O)C(=O)N1CCC[C@H]1C(=O)N[C@@H](CO)C(=O)N[C@@H](CO)C(=O)N[C@H](C(=O)N[C@@H](CC(N)=O)C(=O)N[C@H](C(=O)NCC(=O)N1CCC[C@H]1C(=O)N[C@@H](CC(N)=O)C(=O)N[C@H](C(=O)N[C@@H](Cc1ccc(O)cc1)C(N)=O)[C@@H](C)O)C(C)C)[C@@H](C)O [Example 50]	17.4	17.4	0.038	17.4	0.662	2	1.38
CC[C@H](C)[C@H](NC(=O)[C@H](C)NC(=O)CNC(=O)[C@H](Cc1ccccc1)NC(=O)[C@H](CC(N)=O)NC(=O)[C@@H]1CCCN1C(=O)[C@H](CO)NC(=O)[C@H](CO)NC(=O)[C@H](Cc1c[nH]cn1)NC(=O)[C@H](CCCNC(=N)N)NC(=O)[C@H](CC(C)C)NC(=O)[C@H](Cc1ccccc1)NC(=O)[C@H](CC(N)=O)NC(=O)[C@H](C)NC(=O)[C@H](CC(C)C)NC(=O)[C@H](CCCNC(=N)N)NC(=O)[C@H](CCC(N)=O)NC(=O)[C@@H](NC(=O)[C@H](C)NC(=O)[C@@H]1CSSC[C@H](NC(=O)[C@@H](N)CCCCNC(=O)COCCOCCNC(=O)CC[C@H](NC(=O)CCCCCCCCCCCCCCCCCCC(=O)O)C(=O)O)C(=O)N[C@@H](CC(N)=O)C(=O)N[C@@H]([C@@H](C)O)C(=O)N[C@@H](C)C(=O)N[C@@H]([C@@H](C)O)C(=O)N1)[C@@H](C)O)C(=O)N1CCC[C@H]1C(=O)N[C@@H](CO)C(=O)N1CCC[C@H]1C(=O)N[C@H](C(=O)N1CCC[C@H]1C(=O)N[C@H](C(=O)NCC(=O)N[C@@H](CO)C(=O)N[C@@H](CC(N)=O)C(=O)N[C@H](C(=O)N[C@@H](Cc1ccc(O)cc1)C(N)=O)[C@@H](C)O)C(C)C)[C@@H](C)O [Example 54] (H-K([AEEA-γGlu-C20 diacid])CNTATCATQRLANFLRHSSPNFGAIPSPTPVGSNTY-NH2; disulfide 2-7; N-terminus assumed)	9.6	–	0.103	9.6	0.987	15	4.38
CC[C@H](C)[C@H](NC(=O)[C@H](C)NC(=O)CNC(=O)[C@H](Cc1ccccc1)NC(=O)[C@H](CC(N)=O)NC(=O)[C@@H]1CCCN1C(=O)[C@H](CO)NC(=O)[C@H](CO)NC(=O)[C@H](Cc1c[nH]cn1)NC(=O)[C@H](CCCNC(=N)N)NC(=O)[C@H](CC(C)C)NC(=O)[C@H](Cc1ccccc1)NC(=O)[C@H](CC(N)=O)NC(=O)[C@H](C)NC(=O)[C@H](CC(C)C)NC(=O)[C@H](CCCNC(=N)N)NC(=O)[C@H](CCC(N)=O)NC(=O)[C@@H](NC(=O)[C@H](C)NC(=O)[C@@H]1CSSC[C@H](NC(=O)[C@@H](N)CCCCNC(=O)COCCOCCNC(=O)CC[C@H](NC(=O)CCCCCCCCCCCCCCCCCCC(=O)O)C(=O)O)C(=O)N[C@@H](CC(N)=O)C(=O)N[C@@H]([C@@H](C)O)C(=O)N[C@@H](C)C(=O)N[C@@H]([C@@H](C)O)C(=O)N1)[C@@H](C)O)C(=O)N1CCC[C@H]1C(=O)N1CCC[C@H]1C(=O)N[C@@H](CO)C(=O)N[C@H](C(=O)N[C@@H](CC(N)=O)C(=O)N[C@H](C(=O)NCC(=O)N1CCC[C@H]1C(=O)N[C@@H](CC(N)=O)C(=O)N[C@H](C(=O)N[C@@H](Cc1ccc(O)cc1)C(N)=O)[C@@H](C)O)C(C)C)[C@@H](C)O [Example 55] (H-K([AEEA-γGlu-C20 diacid])CNTATCATQRLANFLRHSSPNFGAIPPSTNVGPNTY-NH2; disulfide 2-7; N-terminus assumed)	10.8	10.8	0.068	10.8	0.731	24	2.18
